Measurements from ChEMBL document CHEMBL1151118, “Plant antimutagenic agents, 2. Flavonoids” (J Nat Prod, 1988).

Legend:
Salmonella typhimurium [1] = experiment: Antimutagenic activity in Salmonella Typhimurium […] assessed as inhibition of benzo[a]pyrene-induced mutation at 150 ug/plate after 72 hrs in presence of Ames S-9 fraction; type: functional, Salmonella enterica subsp. enterica serovar Typhimurium
Salmonella typhimurium [2] = experiment: Antimutagenic activity in Salmonella Typhimurium […] assessed as inhibition of 2-aminoanthracene-induced mutation at 150 ug/plate after 72 hrs in presence of Ames S-9 fraction; type: functional, Salmonella enterica subsp. enterica serovar Typhimurium
Salmonella typhimurium [3] = experiment: Antimutagenic activity in Salmonella Typhimurium […] assessed as inhibition of acetylaminofluorene-induced mutation at 150 ug/plate after 72 hrs in presence of Ames S-9 fraction; type: functional, Salmonella enterica subsp. enterica serovar Typhimurium
Salmonella typhimurium [4] = experiment: Antimutagenic activity in Salmonella Typhimurium […] assessed as inhibition of 2-nitroflorene-induced mutation at 150 ug/plate after 72 hrs; type: functional, Salmonella enterica subsp. enterica serovar Typhimurium
Salmonella typhimurium [5] = experiment: Antimutagenic activity in Salmonella Typhimurium […] assessed as inhibition of benzo[a]pyrene-induced mutation at 600 ug/plate after 72 hrs in presence of Ames S-9 fraction; type: functional, Salmonella enterica subsp. enterica serovar Typhimurium
Salmonella typhimurium [6] = experiment: Antimutagenic activity in Salmonella Typhimurium […] assessed as inhibition of acetylaminofluorene-induced mutation at 600 ug/plate after 72 hrs in presence of Ames S-9 fraction; type: functional, Salmonella enterica subsp. enterica serovar Typhimurium
Salmonella typhimurium [7] = experiment: Antimutagenic activity in Salmonella Typhimurium […] assessed as inhibition of 2-nitroflorene-induced mutation at 600 ug/plate after 72 hrs; type: functional, Salmonella enterica subsp. enterica serovar Typhimurium
Salmonella typhimurium [8] = experiment: Antimutagenic activity in Salmonella Typhimurium […] assessed as inhibition of benzo[a]pyrene-induced mutation at 300 ug/plate after 72 hrs in presence of Ames S-9 fraction; type: functional, Salmonella enterica subsp. enterica serovar Typhimurium
Salmonella typhimurium [9] = experiment: Antimutagenic activity in Salmonella Typhimurium […] assessed as inhibition of 2-nitroflorene-induced mutation at 300 ug/plate after 72 hrs; type: functional, Salmonella enterica subsp. enterica serovar Typhimurium
Salmonella typhimurium [10] = experiment: Antimutagenic activity in Salmonella Typhimurium […] assessed as inhibition of 2-aminoanthracene-induced mutation at 600 ug/plate after 72 hrs in presence of Ames S-9 fraction; type: functional, Salmonella enterica subsp. enterica serovar Typhimurium
Salmonella typhimurium [11] = experiment: Antimutagenic activity in Salmonella Typhimurium […] assessed as inhibition of acetylaminofluorene-induced mutation at 300 ug/plate after 72 hrs in presence of Ames S-9 fraction; type: functional, Salmonella enterica subsp. enterica serovar Typhimurium
Salmonella typhimurium [12] = experiment: Antimutagenic activity in Salmonella Typhimurium […] assessed as inhibition of 2-aminoanthracene-induced mutation at 300 ug/plate after 72 hrs in presence of Ames S-9 fraction; type: functional, Salmonella enterica subsp. enterica serovar Typhimurium
[13] = Toxicity in Salmonella Typhimurium […] at 150 ug/plate after 72 hrs by Ames assay in presence of Ames S-9 fraction; type: organism-based; details: salmonella enterica subsp. enterica serovar typhimurium, Salmonella Typhimurium T98 with S-9 fraction
[14] = Toxicity in Salmonella Typhimurium […] at 300 ug/plate after 72 hrs by Ames assay in presence of Ames S-9 fraction; type: organism-based; details: salmonella enterica subsp. enterica serovar typhimurium, Salmonella Typhimurium T98 with S-9 fraction
[15] = Toxicity in Salmonella Typhimurium […] at 600 ug/plate after 72 hrs by Ames assay in presence of Ames S-9 fraction; type: organism-based; details: salmonella enterica subsp. enterica serovar typhimurium, Salmonella Typhimurium T98 with S-9 fraction

| Structure (SMILES) | inhibition (INH) (Salmonella typhimurium [1]) | inhibition (INH) (Salmonella typhimurium [2]) | inhibition (INH) (Salmonella typhimurium [3]) | inhibition (INH) (Salmonella typhimurium [4]) | inhibition (INH) (Salmonella typhimurium [5]) | inhibition (INH) (Salmonella typhimurium [6]) | inhibition (INH) (Salmonella typhimurium [7]) | inhibition (INH) (Salmonella typhimurium [8]) | inhibition (INH) (Salmonella typhimurium [9]) | inhibition (INH) (Salmonella typhimurium [10]) | inhibition (INH) (Salmonella typhimurium [11]) | inhibition (INH) (Salmonella typhimurium [12]) | inhibition at 72 h, 150 ug/plate [13] | inhibition at 72 h, 300 ug/plate [14] | inhibition at 72 h, 600 ug/plate [15] |
| --- | --- | --- | --- | --- | --- | --- | --- | --- | --- | --- | --- | --- | --- | --- | --- |
| O=c1cc(-c2ccc(O)cc2)oc2cc(O)cc(O)c12 [APIGENIN] | 67% | 0% | 0% | 60% | 75% | 0% | 88% | 64% | 70% | 10% | 14% | 0% | – | – | – |
| C=C[C@@](C)(/C=C/c1ccc(O)cc1)CCC=C(C)C [BAKUCHIOL] | 0% | 91% | 0% | 75% | 43% | 0% | 92% | 28% | 79% | 81% | 0% | 84% | < 20% | < 20% | < 30% |
| CC(C)=CCc1cc2c(cc1O)O[C@H](c1ccc(O)cc1)CC2=O [BAVACHIN] | 0% | 98% | 0% | 52% | – | – | – | 0% | 72% | 62% | 0% | 98% | < 20% | 50% | – |
| COc1ccc(-c2coc3cc(O)cc(O)c3c2=O)cc1 [BIOCHANIN] | – | – | – | – | – | – | – | – | – | 57% | – | – | – | < 20% | < 20% |
| COc1ccc(-c2coc3cc(O)ccc3c2=O)cc1 [FORMONONETIN] | – | – | – | – | – | – | – | – | – | 0% | – | – | – | – | – |
| O=c1c(O)c(-c2ccccc2)oc2cc(O)cc(O)c12 [GALANGIN] | – | – | – | – | – | – | – | – | – | 97% | – | – | – | – | – |
| COc1ccc([C@@H]2CC(=O)c3c(O)cc(O[C@@H]4O[C@H](CO[C@@H]5O[C@@H](C)[C@H](O)[C@@H](O)[C@H]5O)[C@@H](O)[C@H](O)[C@H]4O)cc3O2)cc1O [HESPERIDIN] | – | – | – | – | – | – | – | – | – | 13% | – | – | – | < 20% | < 20% |
| CC(C)=CCc1c(O)ccc(C(=O)/C=C/c2ccc(O)cc2)c1O [ISOBAVACHALCONE] | – | – | – | – | – | – | – | – | – | 86% | – | – | – | > 90% | > 90% |
| O=c1c(O)c(-c2ccc(O)cc2O)oc2cc(O)cc(O)c12 [MORIN] | – | – | – | – | – | – | – | – | – | 0% | – | – | – | < 20% | < 30% |
| C[C@@H]1O[C@@H](O[C@H]2[C@H](Oc3cc(O)c4c(c3)O[C@H](c3ccc(O)cc3)CC4=O)O[C@H](CO)[C@@H](O)[C@@H]2O)[C@H](O)[C@H](O)[C@H]1O [NARINGIN] | – | – | – | – | – | – | – | – | – | 38% | – | – | – | < 30% | 50% |
| CC(C)=CCc1cc(-c2coc3cc(O)ccc3c2=O)ccc1O [NEOBAVAISOFLAVONE] | 17% | 98% | 2% | 15% | 97% | 96% | 66% | 74% | 53% | 97% | 72% | 67% | – | > 90% | > 90% |
| COc1ccc(-c2cc(=O)c3c(OC)c(OC)c(OC)c(OC)c3o2)cc1OC [NOBILETIN] | – | – | – | – | – | – | – | – | – | 43% | – | – | – | < 20% | < 20% |
| O=c1c(O)c(-c2ccc(O)c(O)c2)oc2cc(O)cc(O)c12 [QUERCETIN] | 0% | 16% | 0% | 0% | 0% | 0% | 0% | 0% | 0% | 20% | 0% | 24% | – | 50% | 50% |
| COc1cc(O)c2c(=O)c(O)c(-c3ccc(O)c(O)c3)oc2c1 [RHAMNETIN] | 7% | 0% | 11% | 34% | – | – | – | 45% | 41% | 78% | 52% | 0% | – | – | – |
| C[C@@H]1O[C@@H](OC[C@H]2O[C@@H](Oc3c(-c4ccc(O)c(O)c4)oc4cc(O)cc(O)c4c3=O)[C@H](O)[C@@H](O)[C@@H]2O)[C@H](O)[C@H](O)[C@H]1O [RUTIN] | – | – | – | – | – | – | – | – | – | 0% | – | – | – | < 20% | < 20% |
| COc1ccc(-c2cc(=O)c3c(OC)c(OC)c(OC)c(OC)c3o2)cc1 [TANGERETIN] | – | – | – | – | – | – | – | – | – | 42% | – | – | – | < 20% | 50% |
